# Earlier results, collected in US8440213B2, “Pesticides formulations” (priority 2003, dated 2013).
# Settings: in water, at 20° C.
row,SMILES,Solubility [µg/mL]
1,CCOP(=S)(OCC)Oc1nc(Cl)c(Cl)cc1Cl [Chlorpyriphos],1.4
2,"CCOc1ccc(C(C)(C)COCc2cccc(Oc3ccccc3)c2)cc1 [Etofenprox, 2-(4-ethoxyphenyl)-2-methylpropyl 3-phenoxybenzyl ether]",<0.001
3,COc1nn(CSP(=S)(OC)OC)c(=O)s1 [Methidathion],200
4,"CCCN(CCC)c1c([N+](=O)[O-])cc(C(F)(F)F)cc1[N+](=O)[O-] [Trifluralin, α,α,α,-trifluoro-2,6-dinitro-N,N-dipropyl-p-toluidine]",0.4
